The source of these data is ChEMBL document CHEMBL1130200, “Discovery of 3-aminobenzyloxycarbonyl as an N-terminal group conferring high affinity to the minimal phosphopeptide sequence recognized by the Grb2-SH2 domain” (J Med Chem, 1997).

Where a SMILES comes first, the peptide text is derived from it. [ ]: non-standard residue; d: D form. The star is where a group is joined. pY = N[C@@H](Cc1ccc(OP(=O)(O)O)cc1)C(=O)O; 2Abz = Nc1ccccc1C(=O)O; Cbz = O=C(OCc1ccccc1)*

This assay has as its target Growth factor receptor-bound protein 2 (Homo sapiens, UniProt P62993). The assay is described as follows: Inhibition of Grb2-SH2 domain binding to phospho-EGF receptor intracellular C-terminal domain.

Chain of Growth factor receptor-bound protein 2 (P62993 whole entry, the tested form may be a part): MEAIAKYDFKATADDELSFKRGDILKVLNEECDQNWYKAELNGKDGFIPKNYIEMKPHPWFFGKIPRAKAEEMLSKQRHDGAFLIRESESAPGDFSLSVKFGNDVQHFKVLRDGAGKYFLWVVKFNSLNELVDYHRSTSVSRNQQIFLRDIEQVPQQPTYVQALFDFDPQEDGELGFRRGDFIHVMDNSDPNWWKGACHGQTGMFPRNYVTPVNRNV

For the compound `CC[C@H](C)[C@H](NC(=O)[C@H](Cc1ccc(OP(=O)(O)O)cc1)NC(=O)[C@@H](N)CCC(=O)O)C(=O)N[C@@H](CC(N)=O)C(N)=O` (H-E[pY]IN-NH2), the IC50 was 7.9 µM. `CC[C@H](C)[C@H](NC(=O)[C@H](Cc1ccc(OP(=O)(O)O)cc1)NC(=O)OCc1ccccc1)C(=O)N[C@@H](CC(N)=O)C(N)=O` (Cbz-[pY]-Ile-Asn-NH2) returned an IC50 of 6.35 µM. For `CC[C@H](C)[C@H](NC(=O)[C@H](Cc1ccc(OP(=O)(O)O)cc1)NC(=O)[C@H](CCC(=O)O)NC(=O)c1ccccc1N)C(=O)N[C@@H](CC(N)=O)C(N)=O` (H-[2Abz]E[pY]IN-NH2), the IC50 is 0.022 µM. On to `CC[C@H](C)[C@H](NC(=O)[C@H](Cc1ccc(OP(=O)(O)O)cc1)NC(=O)OCc1cccc(N)c1)C(=O)N[C@@H](CC(N)=O)C(N)=O`, for which the half-inhibitory concentration (IC50) amounted to 0.065 µM. In the case of `CC[C@H](C)[C@H](NC(=O)[C@H](Cc1ccc(OP(=O)(O)O)cc1)NC(C)=O)C(=O)N[C@@H](CC(N)=O)C(N)=O` (Ac-[pY]-Ile-Asn-NH2), the IC50 is 8.64 µM. With `CC[C@H](C)[C@H](NC(=O)[C@@H](N)Cc1ccc(OP(=O)(O)O)cc1)C(=O)N[C@@H](CC(N)=O)C(N)=O` (H-[pY]-Ile-Asn-NH2), the 50% inhibitory concentration (IC50) came out at 56.9 µM.

What is called IC50 is the concentration at which inhibition is half-maximal.
